These are literature values, as cited in patent US20020054921A1, “Use of phyllanthus components for the treatment or prophylaxis of infections triggered by flavivirdae” (priority 2000, published 2002).

The subject of data set [1] is Ca^2+-dependent protein kinase of the wheat embryo. The following applies: wheat embryo Ca^2+-dependent protein kinase.
For data set [2], the target named is T1, cAMP-dependent protein kinase of the rat liver (Rattus norvegicus, UniProt P27791).
T1 construct: the cAMP-dependent protein kinase of the rat liver; host or cells: rat liver

Data set [3] relates to Ca^2+ and phospholipid-dependent protein kinase C (PKC) of the rat brain.
The test system of a further data set is Staphylococcus aureus. The settings on record: 0.1 ml added; extract 50 mg/ml, streptomycin 10 mg/ml.
A further data set has as its system Bacillus subtilis. The following applies: 0.1 ml added; extract 50 mg/ml, streptomycin 10 mg/ml.

For `O=C1OC2C3OC(=O)C4=CC(=O)C5(O)Oc6c(O)c(O)cc(c6C4C5(O)O)C(=O)OC2C(OC(=O)c2cc(O)c(O)c(O)c2)OC3COC(=O)c2cc(O)c(O)c3c2C2C1=CC(=O)C(O)(O3)C2(O)O` (centres unmarked) [amariin], the “inhibition of protein kinase” value in data set [1], in data set [2] and in data set [3] was “most effective” in each case.
On to `[H]/N=C(/N)N[C@H]1[C@H](O)[C@@H](O)[C@H](O[C@@H]2O[C@@H](C)[C@](O)(C=O)[C@H]2O[C@@H]2O[C@@H](CO)[C@H](O)[C@@H](O)[C@@H]2NC)[C@@H](N/C(N)=N\[H])[C@@H]1O` [streptomycin], for which the inhibition zone with Staphylococcus aureus and in the data set with Bacillus subtilis was 35 mm throughout.
Regarding geraiin, the “inhibition of protein kinase” value in data set [1], in data set [2] and in data set [3] was “most effective” in each case.
